Assay results taken from patent publication US20150216820A1, “QUINONE DERIVATIVES FOR USE IN THE MODULATION OF REDOX STATUS OF INDIVIDUALS” (Edison Pharmaceuticals, Inc., priority 2012, published 2015).
Entries after “also recorded” stand apart in the source; their conditions may differ.

Key:
total serum thiol levels = assay: Total thiols in serum/plasma (DTNB, spectrophotometric); format: in vivo, human; details: three-month time point; p=0.008
Protocol: (§1) Intracellular reduced glutathione (GSH) serves as the cell's principal endogenous antioxidant. Leigh syndrome and other mitochondrial diseases are associated with decreased GSH levels as the high level of oxidative stress and free oxygen radicals deplete cellular GSH reserves. In order to verify alpha-tocotrienol quinone mechanism of action and to correlate this action with clinical benefit, intracellular (lymphocyte) glutathione levels were measured in all patients. The ratio of recued-to-oxidized glutathione and reduced glutathione to total glutathione levels were calculated to assess the effect of alpha-tocotrienol quinone on repleting reduced intracellular glutathione. In addition, total serum thiol levels were measured prior to and following initiation of treatment. Plasma creatine levels—an exploratory biomarker for mitochondrial disease—was also obtained.
Total thiols were determined in plasma following the method reported by M.-L. Hu (Methods Enzymol. 233, 380-385 (1994)). 50 μl plasma was mixed with 1 ml of the Tris-EDTA buffer and the absorbance at 412 nm was measured. Then, 20 μl of 10 mM DTNB were added. After 15 min incubation at room temperature, the absorption at 412 nm (ε=13,600 cm^−1M^−1) was measured together with a DTNB blank.

[1] = tested on: intracellular (lymphocyte) glutathione; assay: HPLC determination of lymphocyte glutathione forms (GSH, GS-Pro, GSSG) in treated Leigh syndrome patients; format: in vivo, human
Protocol: The determination of the different forms of GSH obtained from lymphocytes can be performed in a manner similar to the method previously reported by Pastore et al. (Clin. Chem. (Washington, D.C.) 44, 825-832 (1998)). Briefly, 30 μl of 4 M NaBH4, 20 μl of 2 mM EDTA/DTT, 10 μl of 1-octanol and 20 μl of 1.8 M HCl are placed in the derivatization vial containing 30 μl of sample. After the mixture is incubated for three min, 100 μl of 1.5 M N-ethylmorpholine buffer, pH 8.0, 400 μl of distilled water, and 20 μl of 25 mM bromobimane are added. After an additional three-min incubation, 40 μl of acetic acid are added and 20 μl (for free GSH) or 80 μl (for GSSG and GS-Pro) of this mixture are injected into the column. The thiol derivatives are quantified by HPLC (Agilent Technologies 1100 HPLC with a fluorescence detector-excitation at 390 nm and an emission at 478 nm). The analytes are separated for detection using a C18 column (Hypersil ODS; 150×4.6 mm, 3 micron) at 1.5 ml/min using an aqueous phase of aqueous 30 mM ammonium nitrate and 40 mM ammonium formate at pH 3.6 with an increasing acetonitrile gradient. HPLC determinations of the various forms of GSH are carried out on lymphocytes sonicated three times for two sec in 0.1 ml of 0.1 M potassium-phosphate buffer, pH 7.2 using a Model VC 130 Vibra Cell™ ultrasonic processor. For free GSH determinations, 100 μl of 12% sulfosalicylic acid are added to 50 μl of cells lysate, and analytes content on the acid-soluble fraction are determined. The protein pellet is dissolved in 150 μl of 0.1 N NaOH, and protein bound glutathione (GS-Pro) determined. For GSSG determination, cells are sonicated in the presence of 5 mM N-ethylmaleimide (NEM); 100 μl of 12% sulfosalicylic acid are added to 50 μl homogenates, and analytes content on the acid-soluble fraction are determined. Protein concentrations are quantified by BCA-protein assay.
as §1
For lymphocytes and erythrocyte isolation from whole blood, venous blood samples were layered on the top of a discontinuous gradient consisting of 3 ml of Hystopaque®-1119 and 3 mL of Hystopaque®-1077. Gradients were centrifuged at 750 g for 40 min at 4° C. The lymphocyte layer was transferred to a 15 ml centrifuge tube, diluted to a volume of 10 ml with 0.9% NaCl and centrifuged at 750 g for 40 min. The supernatant was removed and, if necessary, the lysis of erythrocytes was performed by adding 2 ml H2O. After 90 s, 2 ml of 1.8% NaCl solution was added and cells washed four times with 0.9% NaCl. The pellet of lymphocytes was centrifuged at 750 g for 10 min and stored at −80° C. until HPLC analysis.
The determination of the different forms of GSH obtained from lymphocytes was performed, with little modification to a method previously reported (Pastore, A., et al. Clin. Chem. (Washington, D.C.) 44, 825-832 (1998)). Briefly, 30 μl of 4 M NaBH4, 20 μl of 2 mM EDTA/DTT, 10 μl of 1-octanol and 20 μl of 1.8 M HCl were placed in the derivatization vial containing 30 μl of sample. […]

[2] = tested on: children with genetically-confirmed Leigh syndrome; assay: Phase 2 single arm subject-controlled trial in children with Leigh syndrome: clinical outcome scales (NPMDS, GMFM, PedsQL, MD-CRS); format: in vivo, human
[3] = Plasma trough drug concentration in Leigh syndrome subjects; format: in vivo; details: 100 mg three times daily, eight hours post dosing
Protocol: (§2) The initial clinical dose was selected based on laboratory and human patient pharmacokinetic modeling data. Specifically, a three-compartment model for oral administration was employed that included GI absorption delay, as well as one central and one peripheral compartment. A plasma trough drug concentration was targeted 10-20 fold above the ˜10 nM in vitro EC50 value of alpha-tocotrienol quinone that protected Leigh syndrome (SURF1) primary cells against glutathione depletion-mediated apoptotic cell death. Based on serum values of alpha-tocotrienol quinone obtained in two Leigh syndrome subjects after a single 100 mg dose of alpha-tocotrienol quinone was administered, a clinical dose of 100 mg three times daily was calculated and selected as the initial dose. […] This was consistent with the in vitro target dose and was confirmed in multiple pediatric subjects with inherited mitochondrial disease (Enns, G. M., et al., Mol. Genet. Metab. 105, 91-102 (2012); Blankenberg, F., et al., Ann. Neurol. 70, S148-S148 (2011)). This dose was also safely below the preclinical no observed adverse effect level (NOAEL).

[4] = tested on: children with genetically-confirmed Leigh syndrome; assay: Safety and tolerability in the Leigh syndrome trial; format: in vivo, human
Protocol: There were three serious adverse events due to intercurrent illness during the three month trial (two cases of bronchitis and one case of salmonellosis, all resolved). […] All recorded values were within the normal range for the clinical laboratories used for the analysis.
All subjects received 100 mg of alpha-tocotrienol quinone three times daily orally or via gastrostomy tube. Total treatment length was three months, with an extension phase for children who completed the initial treatment period. All adverse and serious adverse events were tracked in the trial database. In addition, all held doses due to intolerance of alpha-tocotrienol quinone or any other reason were also recorded.

[5] = tested on: Leigh syndrome (SURF1) primary cells; assay: In vitro protection of patient primary cells against glutathione depletion-mediated apoptotic cell death; format: cell-based, human
Protocol: as §2

plasma creatine = assay: Plasma creatine levels (exploratory biomarker for mitochondrial disease); format: in vivo, human; details: p=0.15
Protocol: as §1

[6] = LS patients after six-months treatment, n = 10
[7] = three months, 100 mg orally three times daily, p=0.01

CC(C)=CCC/C(C)=C/CC/C(C)=C/CC[C@@](C)(O)CCC1=C(C)C(=O)C(C)=C(C)C1=O [alpha-tocotrienol quinone]
total serum thiol levels, mean change (total serum thiol levels): 0.14 | GS-Pro, lymphocytes, median [1, 6]: 0.57 nmol/mg proteins | GSH, lymphocytes, median [1, 6]: 28.92 nmol/mg proteins | GSSG, lymphocytes, median [1, 6]: 1.47 nmol/mg proteins | Tot GSH, lymphocytes, median [1, 6]: 32.47 nmol/mg proteins | overall glutathione charge (GSSG/GSH and GSSG/total glutathione ratios), FIG. 2 ([1]; all patients, over treatment time): rapid normalization | oxidized-to-reduced glutathione levels after treatment ([1]; decrease from baseline ratio mean 3.1+/-2.1, p=0.005): 0.25 | time to changes in reduced glutathione levels and oxidized-to-reduced glutathione ratios ([1]; in most of the patients): ≤ 4 weeks | time to biochemical response (glutathione charge) ([1]; in several subjects, preceding clinical response): within two weeks | reduced glutathione in isolated lymphocytes after treatment ([1]; increase from 8.5 at baseline, p=0.002): 25.1 nmol/mg cell protein | oxidized glutathione after treatment ([1]; reduction, p=0.005): 0.25 nmol/mg cell protein | clinical disease progression ([2]; all children, three months, regardless of age, genotype, severity): arrest of disease progression and reversal | NPMDS score, patient 1, earlier value ([2]; patient 1, before continued treatment to six months): 23.5 | NPMDS score, patient 1, later value ([2]; patient 1, treated for six months): 21.1 | GMFM score, patient 2 ([2]; patient 2, at six months, increased from 7.6): 19.8 | NPMDS score, patient 2, earlier value ([2]; patient 2, before continued treatment to six months): 54 | change in GMFM score, patient 2 ([2]; patient 2, following three months of treatment): no change | NPMDS score, patient 2, later value ([2]; patient 2, treated for six months): 46 | NPMDS score, patient 3, earlier value ([2]; patient 3, before continued treatment to six months): 27.8 | NPMDS score, patient 3, later value ([2]; patient 3, treated for six months): 25.7 | change in GMFM score, patient 7 ([2]; patient 7, score 97.5 prior to treatment (maximum 100)): did not change | clinical outcomes (NPMDS, neuromuscular function, health related quality of life, dystonia and spasticity), FIG. 1 ([2]; prior to vs following three months of treatment): significant improvement | average improvement in total NPMDS score from baseline ([2]; three months): 25% | NPMDS sections 1-3 (organ system function), mean improvement ([2]; three months, 100 mg orally three times daily, p=0.005): 7.1 | GMFM, mean improvement [2, 7]: 8.9 | NPMDS section 4 (quality of life), average improvement [2, 7]: 4.6 | PedsQL Neuromuscular Module, mean improvement ([2]; three months, 100 mg orally three times daily, p=0.03): 14.6 | Movement Disorder-Childhood Rating Scale (MD-CRS), improvement in each child ([2]; three months, secondary endpoint): one class | time to clinical response ([2]; universal and durable): within eight weeks | average trough concentration [3]: ~200 nM | clinical chemistry laboratory parameters incl. liver and kidney function tests and coagulation parameters ([4]; three month trial): no abnormalities | other reported adverse conditions ([4]; three month trial): mild sleepiness and hypotonia | serious adverse events due to intercurrent illness ([4]; three month trial, two bronchitis, one salmonellosis, all resolved): three | drug related adverse events ([4]; three months, 100 mg three times daily): No drug related adverse events; also recorded: not associated with any drug-induced adverse events | EC50 [5]: ~10 nM | plasma creatine, overall average decrease (plasma creatine): 20.2 points
